# Measured values: ChEMBL document CHEMBL1132568, “Synthesis, pharmacological evaluation, and structure-activity relationship and quantitative structure-activity relationship studies on novel derivatives of 2,4-diamino-6,7-dimethoxyquinazoline alpha1-adrenoceptor antagonists” (J Med Chem, 1999)
# Key:
# [1] = target: T1, 5-hydroxytryptamine receptor 1A (Rattus norvegicus, UniProt P19327); assay: Inhibitory concentration against 5-hydroxytryptamine 1A receptor (Inactive at >1000 nM concentration)
# T1 sequence (P19327 whole entry): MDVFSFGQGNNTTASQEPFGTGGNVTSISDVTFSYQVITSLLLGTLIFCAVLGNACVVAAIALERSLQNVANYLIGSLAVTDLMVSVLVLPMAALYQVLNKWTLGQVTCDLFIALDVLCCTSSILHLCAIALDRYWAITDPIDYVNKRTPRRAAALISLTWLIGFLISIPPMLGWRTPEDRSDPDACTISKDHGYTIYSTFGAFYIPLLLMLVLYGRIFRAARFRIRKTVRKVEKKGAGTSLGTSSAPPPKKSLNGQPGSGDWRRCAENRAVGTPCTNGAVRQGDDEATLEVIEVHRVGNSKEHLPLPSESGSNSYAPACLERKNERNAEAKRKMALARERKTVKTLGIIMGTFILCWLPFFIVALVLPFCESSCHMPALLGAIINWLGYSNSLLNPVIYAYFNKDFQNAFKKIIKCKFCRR
# [2] = target: 5-hydroxytryptamine receptor 2A (Rattus norvegicus, UniProt P14842); assay: Inhibitory concentration against 5-hydroxytryptamine 2A receptor (Inactive at >1000 nM concentration)
# [3] = target: T2, Adrenergic receptor alpha-1 (Rattus norvegicus, UniProt P15823+P23944+P43140); assay: Inhibition of Alpha-1 adrenergic receptor in rat cortex membrane; type: cell membranes
# T2 sequence (P15823 whole entry): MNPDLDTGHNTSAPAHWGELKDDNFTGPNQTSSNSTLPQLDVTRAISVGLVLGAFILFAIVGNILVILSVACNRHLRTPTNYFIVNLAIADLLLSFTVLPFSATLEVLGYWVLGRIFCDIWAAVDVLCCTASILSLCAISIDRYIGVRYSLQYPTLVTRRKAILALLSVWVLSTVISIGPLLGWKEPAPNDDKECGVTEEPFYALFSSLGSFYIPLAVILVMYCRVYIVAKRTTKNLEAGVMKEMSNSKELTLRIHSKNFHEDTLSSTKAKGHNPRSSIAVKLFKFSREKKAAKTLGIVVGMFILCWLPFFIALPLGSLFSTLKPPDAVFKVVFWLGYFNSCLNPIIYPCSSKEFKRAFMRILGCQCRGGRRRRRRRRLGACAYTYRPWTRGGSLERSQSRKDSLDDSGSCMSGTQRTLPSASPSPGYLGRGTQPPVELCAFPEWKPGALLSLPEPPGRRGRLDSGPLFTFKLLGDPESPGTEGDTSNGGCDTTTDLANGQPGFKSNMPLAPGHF
# T2 sequence (P23944 whole entry): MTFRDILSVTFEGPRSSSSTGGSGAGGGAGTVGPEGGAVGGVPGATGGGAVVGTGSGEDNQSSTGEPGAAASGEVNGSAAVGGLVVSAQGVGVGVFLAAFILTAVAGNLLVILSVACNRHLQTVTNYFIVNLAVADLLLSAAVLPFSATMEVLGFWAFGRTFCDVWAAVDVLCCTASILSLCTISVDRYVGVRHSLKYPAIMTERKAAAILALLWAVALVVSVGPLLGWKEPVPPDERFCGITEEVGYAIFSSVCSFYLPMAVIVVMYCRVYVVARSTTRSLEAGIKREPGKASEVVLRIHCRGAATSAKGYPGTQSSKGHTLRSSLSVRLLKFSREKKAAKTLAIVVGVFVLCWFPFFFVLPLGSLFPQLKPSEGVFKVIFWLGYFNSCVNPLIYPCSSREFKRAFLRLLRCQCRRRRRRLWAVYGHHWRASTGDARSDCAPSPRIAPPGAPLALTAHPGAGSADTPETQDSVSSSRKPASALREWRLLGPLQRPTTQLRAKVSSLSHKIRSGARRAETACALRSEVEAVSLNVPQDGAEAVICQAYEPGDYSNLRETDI
# T2 sequence (P43140 whole entry): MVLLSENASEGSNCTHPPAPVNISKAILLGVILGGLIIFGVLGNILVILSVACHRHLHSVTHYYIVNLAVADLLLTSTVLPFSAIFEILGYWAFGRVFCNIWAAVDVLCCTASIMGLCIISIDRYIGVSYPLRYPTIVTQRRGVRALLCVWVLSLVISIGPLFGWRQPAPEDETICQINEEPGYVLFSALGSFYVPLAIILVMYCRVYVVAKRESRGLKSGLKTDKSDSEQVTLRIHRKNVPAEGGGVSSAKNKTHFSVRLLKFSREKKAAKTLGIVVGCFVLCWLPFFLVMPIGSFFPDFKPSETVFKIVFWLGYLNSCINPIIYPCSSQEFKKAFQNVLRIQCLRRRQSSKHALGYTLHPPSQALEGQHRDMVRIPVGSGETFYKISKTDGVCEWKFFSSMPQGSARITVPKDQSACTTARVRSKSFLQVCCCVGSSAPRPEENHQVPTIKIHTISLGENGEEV
# [4] = target: T3, Adrenergic receptor alpha-2 (Rattus norvegicus, UniProt P22086+P19328+P22909); assay: Inhibitory concentration against Alpha-2 adrenergic receptor; type: protein assay
# T3 sequence (P22086 whole entry): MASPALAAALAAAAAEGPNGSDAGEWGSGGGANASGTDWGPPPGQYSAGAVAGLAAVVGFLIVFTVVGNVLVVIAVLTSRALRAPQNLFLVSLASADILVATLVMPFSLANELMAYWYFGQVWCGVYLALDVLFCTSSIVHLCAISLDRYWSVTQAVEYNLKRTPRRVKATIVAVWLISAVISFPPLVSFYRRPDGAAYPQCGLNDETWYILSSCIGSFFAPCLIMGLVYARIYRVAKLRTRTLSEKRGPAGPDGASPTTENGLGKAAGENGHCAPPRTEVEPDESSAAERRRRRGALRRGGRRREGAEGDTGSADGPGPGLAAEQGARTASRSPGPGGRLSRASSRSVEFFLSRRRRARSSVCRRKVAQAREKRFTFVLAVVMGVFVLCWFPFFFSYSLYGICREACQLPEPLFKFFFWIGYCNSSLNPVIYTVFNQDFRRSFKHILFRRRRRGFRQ
# T3 sequence (P19328 whole entry): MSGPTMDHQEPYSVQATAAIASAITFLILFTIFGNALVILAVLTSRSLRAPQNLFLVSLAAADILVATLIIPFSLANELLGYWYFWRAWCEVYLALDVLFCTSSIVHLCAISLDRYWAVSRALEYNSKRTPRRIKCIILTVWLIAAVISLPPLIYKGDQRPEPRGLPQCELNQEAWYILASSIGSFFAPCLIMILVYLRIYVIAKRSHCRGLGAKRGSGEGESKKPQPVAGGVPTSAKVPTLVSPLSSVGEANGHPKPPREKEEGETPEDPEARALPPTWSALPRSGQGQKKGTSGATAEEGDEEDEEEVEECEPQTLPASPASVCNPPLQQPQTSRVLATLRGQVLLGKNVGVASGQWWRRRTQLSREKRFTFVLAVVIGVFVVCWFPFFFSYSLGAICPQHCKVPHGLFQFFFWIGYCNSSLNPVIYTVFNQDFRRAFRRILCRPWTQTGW
# T3 sequence (P22909 whole entry): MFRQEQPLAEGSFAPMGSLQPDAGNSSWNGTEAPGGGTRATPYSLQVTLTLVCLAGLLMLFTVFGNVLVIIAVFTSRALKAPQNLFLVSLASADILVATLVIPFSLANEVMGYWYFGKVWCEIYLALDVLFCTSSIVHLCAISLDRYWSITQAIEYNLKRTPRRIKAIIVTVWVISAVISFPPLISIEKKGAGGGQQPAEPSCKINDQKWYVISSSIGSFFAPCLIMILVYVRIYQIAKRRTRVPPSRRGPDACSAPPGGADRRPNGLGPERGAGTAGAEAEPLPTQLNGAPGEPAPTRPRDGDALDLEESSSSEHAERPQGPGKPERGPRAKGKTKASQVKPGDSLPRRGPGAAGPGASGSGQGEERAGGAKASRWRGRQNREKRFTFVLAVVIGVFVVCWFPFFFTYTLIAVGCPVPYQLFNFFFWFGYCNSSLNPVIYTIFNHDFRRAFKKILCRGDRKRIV
# [5] = target: T4, Alpha-1A adrenergic receptor (Rattus norvegicus, UniProt P43140); assay: The binding affinity towards Alpha-1A adrenergic receptor in the COS cell line.; type: cell-based
# T4 sequence (P43140 whole entry): T2 sequence (P43140 whole entry)
# D(2) dopamine receptor = D(2) dopamine receptor (Rattus norvegicus, UniProt P61169); assay: Inhibitory concentration against Dopamine receptor D2 (Inactive at >1000 nM concentration)
# [6] = target: Alpha-1D adrenergic receptor (Rattus norvegicus); assay: The binding affinity towards Alpha-1D adrenergic receptor in the COS cell line.
# [7] = target: Alpha-1B adrenergic receptor (non-human animal clone); assay: The binding affinity towards Alpha-1B adrenergic receptor in the COS cell line.
# Canis familiaris [8] = assay: In vivo hypotensive effect(DBP) in dog after intravenous administration.; type: functional, Canis lupus familiaris
# Canis familiaris [9] = assay: In vivo effect on urethral contractility (UP) of dog after intravenous administration.; type: functional, Canis lupus familiaris, Urethra
# [10] = target: T1, 5-hydroxytryptamine receptor 1A; assay: Inhibition concentration against 5-hydroxytryptamine 1A receptor
# Canis familiaris [11] = assay: Ratio of the in vivo effects(DBP/UP) in the dog model after intravenous administration.; type: functional, Canis lupus familiaris
# Chain of 5-hydroxytryptamine receptor 2A (P14842 whole entry): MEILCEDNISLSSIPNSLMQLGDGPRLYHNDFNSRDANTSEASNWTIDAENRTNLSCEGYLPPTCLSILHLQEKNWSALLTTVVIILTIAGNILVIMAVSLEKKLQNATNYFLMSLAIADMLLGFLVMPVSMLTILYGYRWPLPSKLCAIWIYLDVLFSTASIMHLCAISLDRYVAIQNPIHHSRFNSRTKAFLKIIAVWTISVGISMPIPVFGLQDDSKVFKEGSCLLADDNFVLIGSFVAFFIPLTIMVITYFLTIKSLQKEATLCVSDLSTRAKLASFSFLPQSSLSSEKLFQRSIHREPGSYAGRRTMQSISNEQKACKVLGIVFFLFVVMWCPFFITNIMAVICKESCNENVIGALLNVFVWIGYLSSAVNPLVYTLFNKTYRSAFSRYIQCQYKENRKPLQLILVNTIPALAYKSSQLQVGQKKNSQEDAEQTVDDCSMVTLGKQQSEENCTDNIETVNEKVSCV
# Chain of D(2) dopamine receptor (P61169 whole entry): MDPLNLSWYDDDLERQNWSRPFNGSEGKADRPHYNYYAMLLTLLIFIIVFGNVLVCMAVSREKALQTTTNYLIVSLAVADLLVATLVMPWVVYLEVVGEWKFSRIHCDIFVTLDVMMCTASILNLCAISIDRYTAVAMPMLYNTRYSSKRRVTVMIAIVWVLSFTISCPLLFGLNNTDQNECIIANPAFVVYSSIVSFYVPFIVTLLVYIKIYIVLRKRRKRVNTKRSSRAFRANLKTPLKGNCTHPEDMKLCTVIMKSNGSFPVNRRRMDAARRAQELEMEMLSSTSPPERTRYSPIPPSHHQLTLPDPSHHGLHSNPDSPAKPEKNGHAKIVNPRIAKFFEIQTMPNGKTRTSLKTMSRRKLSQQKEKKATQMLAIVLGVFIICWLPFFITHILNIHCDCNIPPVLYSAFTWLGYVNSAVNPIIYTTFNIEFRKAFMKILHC
Compound,IC50 [1],IC50 [2],IC50 [3],IC50 [4],Ki [5],IC50 (D(2) dopamine receptor),Ki [6],Ki [7],IC50 [10],ED25 (Canis familiaris [8]),ED50 (Canis familiaris [9]),DBP/UP ratio (Canis familiaris [11])
COc1cc2nc(N3CCN(C(=O)C(C)Oc4c(OC)cccc4C(C)C)CC3)nc(N)c2cc1OC (centres undefined),> 1000 nM,> 1000 nM,123 nM,> 1000 nM,156 nM,> 1000 nM,113 nM,14.7 nM,,,,
COc1cc2nc(N3CCN(C(=O)CC(c4ccccc4)c4ccccc4)CC3)nc(N)c2cc1OC,> 1000 nM,> 1000 nM,1.4 nM,> 1000 nM,1.48 nM,> 1000 nM,,,,0.023 mg/kg,0.031 mg/kg,
COc1cc2nc(N3CCN(C(=O)CCC(=O)c4ccccc4)CC3)nc(N)c2cc1OC,> 1000 nM,> 1000 nM,15 nM,> 1000 nM,5.68 nM,> 1000 nM,,,,0.132 mg/kg,0.035 mg/kg,

# More lines, main results first:
IC50 [1],IC50 [2],IC50 [3],IC50 [4],Ki [5],IC50 (D(2) dopamine receptor),Ki [6],Ki [7],IC50 [10],Compound,ED25 (Canis familiaris [8]),ED50 (Canis familiaris [9]),DBP/UP ratio (Canis familiaris [11])
,> 1000 nM,,> 1000 nM,,> 1000 nM,,,170 nM,COc1cc2nc(N3CCN(C(=O)COc4ccccc4OC)CC3)nc(N)c2cc1OC,,,
> 1000 nM,> 1000 nM,7.2 nM,> 1000 nM,11 nM,> 1000 nM,8.17 nM,5.43 nM,,COc1cc2nc(N3CCN(C(=O)CC(=O)c4ccccc4)CC3)nc(N)c2cc1OC,0.0081 mg/kg,0.0106 mg/kg,0.7
